Assay results reported in ChEMBL document CHEMBL3808353, “Targeting the Follicle Stimulating Hormone Receptor (FSHR) To Treat Fertility Disorders” (ACS Med Chem Lett, 2016).

Molecular target: T1, Follicle-stimulating hormone receptor (Homo sapiens, UniProt P23945)
T1 sequence (P23945 whole entry): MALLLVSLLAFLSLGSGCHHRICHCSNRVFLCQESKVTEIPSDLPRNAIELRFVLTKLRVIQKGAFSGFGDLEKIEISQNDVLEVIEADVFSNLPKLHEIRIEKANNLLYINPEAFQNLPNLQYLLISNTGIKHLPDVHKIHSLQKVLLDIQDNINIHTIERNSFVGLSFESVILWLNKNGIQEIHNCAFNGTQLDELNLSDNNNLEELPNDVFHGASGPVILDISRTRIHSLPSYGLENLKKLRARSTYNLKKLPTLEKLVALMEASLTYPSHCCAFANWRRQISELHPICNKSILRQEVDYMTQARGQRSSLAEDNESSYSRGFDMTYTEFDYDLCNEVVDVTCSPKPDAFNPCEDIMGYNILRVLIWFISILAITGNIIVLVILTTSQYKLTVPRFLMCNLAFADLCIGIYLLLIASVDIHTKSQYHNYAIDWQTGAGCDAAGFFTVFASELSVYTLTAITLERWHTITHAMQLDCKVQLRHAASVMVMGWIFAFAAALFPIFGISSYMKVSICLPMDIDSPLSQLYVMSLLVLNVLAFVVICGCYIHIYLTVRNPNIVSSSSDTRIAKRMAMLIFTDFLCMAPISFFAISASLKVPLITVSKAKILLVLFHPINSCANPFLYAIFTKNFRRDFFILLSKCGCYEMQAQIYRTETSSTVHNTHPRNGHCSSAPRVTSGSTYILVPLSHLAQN
Assay: Positive allosteric modulation of FSHR (unknown origin) expressed in CHO cells assessed as FSH-induced cAMP accumulation incubated for 1 hr by HTRF assay
Assay type: functional, cell-based

| SMILES | EC50 |
| --- | --- |
| C=CCNC(=O)NCCCNC(=O)c1ccc(N2CCN(c3ccccc3C)CC2)c(NC(=O)c2ccco2)c1 | < 0.1 µM |
| Cc1ccccc1N1CCN(c2ccc(C(=O)NCCCN3CCCC3=O)cc2NC(=O)c2ccc(F)cc2)CC1 | 0.1 µM |
| Cc1ccccc1N1CCN(c2ccc(C(=O)N[C@H]3CCC[C@H](O)C3)cc2NC(=O)c2coc(C3CC3)n2)CC1 | < 0.1 µM |

Other lines, results leading:

| EC50 | SMILES |
| --- | --- |
| < 0.1 µM | Cc1ccccc1N1CCN(c2ccc(C(=O)NCCCN3CCCC3=O)cc2NC(=O)c2coc(C3CC3)n2)CC1 |
| < 0.1 µM | Cc1ccccc1N1CCN(c2ccc(C(=O)NCCCc3nn[nH]n3)cc2NC(=O)c2coc(C3CC3)n2)CC1 |
| < 0.1 µM | Cc1ccccc1N1CCN(c2ccc(C(=O)NCCCN3CCCC3=O)cc2NC(=O)c2ccco2)CC1 |

Molecular target: T1, Follicle-stimulating hormone receptor
Assay: Positive allosteric modulation of human FSHR expressed in rat granulosa cells assessed as FSH-induced estradiol production after 72 hrs by radioimmunossay
Assay type: cell-based

| EC50 | SMILES |
| --- | --- |
| 0.1 µM | Cc1ccccc1N1CCN(c2ccc(C(=O)NCCCN3CCCC3=O)cc2NC(=O)c2coc(C3CC3)n2)CC1 |
| 0.1 µM | Cc1ccccc1N1CCN(c2ccc(C(=O)NCCCc3nn[nH]n3)cc2NC(=O)c2coc(C3CC3)n2)CC1 |
| > 1 µM | Cc1ccccc1N1CCN(c2ccc(C(=O)NCCCN3CCCC3=O)cc2NC(=O)c2ccco2)CC1 |
| 0.1 µM | Cc1ccccc1N1CCN(c2ccc(C(=O)NCCCN3CCCC3=O)cc2NC(=O)c2ccc(F)cc2)CC1 |
